Test results as given in patent publication US20240210394A1, “MICROORGANISM CAPTURE FROM ANTIMICROBIAL-CONTAINING SOLUTION” (MOMENTUM BIOSCIENCE LIMITED, priority 2019, published 2024).

Tests used:
Candida albicans = experiment: Blood culture time to positivity (flip time), bead rescue vs no-rescue control; format: cell-based; settings: 4000 cfu/5 mL Blood
Method: (§1) Day 1: […] (or 30° C. for C. neoformans) in a shaking incubator. Day 2: […] (or 30° C. for C. neoformans) for 2 h for outgrowth. • Antibiotic added to whole blood (defibrinated horse blood) at required level • Whole blood as no-antibiotic control • Test dilution(s) of organism added to blood+antibiotic or blood only at 10 μL per mL of blood (sufficient prepared for experiment requirements) • 100 μL plate count sample taken (TO sample) • 2-hour incubation (static) at 37° C. […] […] on V&P magnet for 10 min then remove supernatant • 7. […] […] for 3 min then remove supernatant • 9. Resuspend beads in 1 mL Detergent-free Wash Buffer (DWB) off magnet then replace on DynaMag-2 magnet • 10. […] for 3 min then remove supernatant • 11. Resuspend beads in 1 mL DWB, add to new blood culture bottle (using vial adapter) and start incubation (adapter removed) […] The “Flip” time is when a bottle turns positive as determined by the automated blood culture cabinet, which records time to positivity.

Cryptococcus neoformans = experiment: as above; format: cell-based; settings: antibiotic 2 mg/L blood; 102200 cfu/5 mL Blood
Method: as §1

E. coli [1] = experiment: as above; format: cell-based; settings: for Flip time: Bead rescue; for Bead Rescue Flip time / Control Flip time in Days: antibiotic 0.075 mg/L blood
Method: (§2) Day 1: Prepare overnight culture of test organism in blood/broth medium (50:50 blood:broth) and incubate at 37° C. in a shaking incubator.
Day 2: Prepare ten-fold serial dilution of overnight culture in blood/broth as required and incubate at 37° C. for 2 h for outgrowth.
Add 5 mL of spiked blood+beads (set 1) and 5 mL of spiked blood/Abx+beads (set 3) to blood culture bottles (BioMerieux SA culture bottle) using a vial adapter (West Pharmaceutical Services, Inc. PA, US).
Remove the adaptor and incubate the blood culture bottles in the automated blood culture cabinet (BacT/ALERT BioMerieux) for up to 5 days.
(§3) Record the “Flip” time of each bottle or bottle result at the end of 5 days incubation. The “Flip” time is when a bottle turns positive as determined by the automated blood culture cabinet, which records time to positivity.
(§4) Day 1: Prepare overnight culture of test organism in blood/broth medium (50:50 blood:broth) and incubate at 37° C. (or 30° C. for C. neoformans) in a shaking incubator.
(or 30° C. for C. neoformans) for 2 h for outgrowth. • Antibiotic added to whole blood (defibrinated horse blood) at required level • Whole blood as no-antibiotic control • Test dilution(s) of organism added to blood+antibiotic or blood only at 10 μL per mL of blood (sufficient prepared for experiment requirements) • 100 μL plate count sample taken (TO sample) • 2-hour incubation (static) at 37° C. (or 30° C. for C. neoformans) • 100 μL plate count sample taken (T2 sample) • 5 mL of spiked blood+abx or blood only added to blood culture bottle (using vial adapter) and incubation started (adapter removed) • 5 mL of spiked blood+abx or blood only (from same source) treated with Momentum Capture Beads as below: • 1. Capture Beads diluted in the relevant Capture Reagent—50 μL beads:700 μL capture reagent per clean-up • 2. 750 μL of diluted beads added to 50 mL conical centrifuge tube • 3. 5 mL of transfer medium added to tube • 4. 5 mL of spiked blood+abx or blood only added to tube • 5. […] Magnetise on V&P magnet for 10 min then remove supernatant • 7. Resuspend beads in 1 mL Detergent-free Wash Buffer (DWB) off magnet and transfer to 2 mL Eppendorf flip-top tube on DynaMag-2 magnet • 8. Magnetise for 3 min then remove supernatant • 9. Resuspend beads in 1 mL Detergent-free Wash Buffer (DWB) off magnet then replace on DynaMag-2 magnet • 10. Magnetise for 3 min then remove supernatant • 11. Resuspend beads in 1 mL DWB, add to new blood culture bottle (using vial adapter) and start incubation (adapter removed)
Momentum Capture Beads diluted in the relevant Capture Reagent—50 μL beads:700 μL capture reagent per clean-up • 2. 750 μL of diluted beads added to 50 mL conical centrifuge tube • 3. 5 mL of transfer medium added to tube • 4. 5 mL of spiked blood+abx or blood only added to tube • 5. […] Magnetise on V&P magnet for 10 min then remove supernatant • 7. Resuspend beads in 1 mL Detergent-free Wash Buffer (DWB) off magnet and transfer to 2 mL Eppendorf flip-top tube on DynaMag-2 magnet • 8. Magnetise for 3 min then remove supernatant • 9. Resuspend beads in 1 mL Detergent-free Wash Buffer (DWB) off magnet then replace on DynaMag-2 magnet • 10. Magnetise for 3 min then remove supernatant • 11. Resuspend beads in 1 mL DWB, add to an unused blood culture bottle (BioMerieux FA+culture bottle) using vial adapter and start incubation (adapter removed)

E. coli [2] = settings: cited from earlier work
S. pneumoniae = experiment: Blood culture time to positivity (flip time), bead rescue vs no-rescue control; format: cell-based; settings: for Flip time: Bead rescue; for Flip time / Flip time in Days: 12600 cfu/5 ml blood; for Flip time in Days: Control (FA plus bottle); for Bead Rescue Flip time / Control Flip time in Days: antibiotic 1 mg/L blood
Method: as §4
(or 30° C. for C. neoformans) for 2 h for outgrowth. • Antibiotic added to whole blood (defibrinated horse blood) at required level • Whole blood as no-antibiotic control • Test dilution(s) of organism added to blood+antibiotic or blood only at 10 μL per mL of blood (sufficient prepared for experiment requirements) • 100 μL plate count sample taken (TO sample) • 2-hour incubation (static) at 37° C. (or 30° C. for C. neoformans) • 100 μL plate count sample taken (T2 sample) • 5 mL of spiked blood+abx or blood only added to blood culture bottle (using vial adapter) and incubation started (adapter removed) • 5 mL of spiked blood+abx or blood only (from same source) treated with Momentum Capture Beads as below: • 1. Capture Beads diluted in the relevant Capture Reagent—50 μL beads:700 μL capture reagent per clean-up • 2. 750 μL of diluted beads added to 50 mL conical centrifuge tube • 3. 5 mL of transfer medium added to tube • 4. 5 mL of spiked blood+abx or blood only added to tube • 5. Incubate on ITL TherMix (32.5° C./30 min/1000 rpm—ramped speed protocol) • 6. Magnetise on V&P magnet for 10 min then remove supernatant • 7. Resuspend beads in 1 mL Detergent-free Wash Buffer (DWB) off magnet and transfer to 2 mL Eppendorf flip-top tube on DynaMag-2 magnet • 8. Magnetise for 3 min then remove supernatant • 9. Resuspend beads in 1 mL Detergent-free Wash Buffer (DWB) off magnet then replace on DynaMag-2 magnet • 10. Magnetise for 3 min then remove supernatant • 11. Resuspend beads in 1 mL DWB, add to new blood culture bottle (using vial adapter) and start incubation (adapter removed)
as §3, §2
Momentum Capture Beads diluted in the relevant Capture Reagent—50 μL beads:700 μL capture reagent per clean-up • 2. 750 μL of diluted beads added to 50 mL conical centrifuge tube • 3. 5 mL of transfer medium added to tube • 4. 5 mL of spiked blood+abx or blood only added to tube • 5. Incubate on ITL TherMix (32.5° C./30 min/1000 rpm—ramped speed protocol) • 6. Magnetise on V&P magnet for 10 min then remove supernatant • 7. Resuspend beads in 1 mL Detergent-free Wash Buffer (DWB) off magnet and transfer to 2 mL Eppendorf flip-top tube on DynaMag-2 magnet • 8. Magnetise for 3 min then remove supernatant • 9. Resuspend beads in 1 mL Detergent-free Wash Buffer (DWB) off magnet then replace on DynaMag-2 magnet • 10. Magnetise for 3 min then remove supernatant • 11. Resuspend beads in 1 mL DWB, add to an unused blood culture bottle (BioMerieux FA+culture bottle) using vial adapter and start incubation (adapter removed)
To compare organism capture and rescue from FA plus bottles, on S. pneumoniae in Ceftriaxone. Reproduce experiment by Flayhart et al. 2007 testing antibiotic concentrations of 250, 125 and 94 mg/L and also include concentrations of 50 and 10 mg/L.
In the table below, “control” represents samples processed using FA plus bottles (also referred to as “BC” in the final column) and “bead rescue” refers to samples processed according to the methods of the invention.

## C[C@@H]1[C@H](O)[C@@H](C)/C=C/C=C/C=C/C=C/C=C/C=C/C=C/[C@H](O[C@@H]2O[C@H](C)[C@@H](O)[C@H](N)[C@@H]2O)C[C@@H]2O[C@](O)(C[C@@H](O)C[C@@H](O)[C@H](O)CC[C@@H](O)C[C@@H](O)CC(=O)O[C@H]1C)C[C@H](O)[C@H]2C(=O)O [Amphoteracin B]
Candida albicans; antibiotic 1 mg/L blood
  Bead Rescue Flip time: 1.27 days
  Control Flip time: 2.22 days
Candida albicans; antibiotic 2 mg/L blood
  Bead Rescue Flip time: 1.85 days
  Control Flip time: 2.98 days
Cryptococcus neoformans
  Bead Rescue Flip time: 3.14 days
  Control Flip time: 3.7 days

## CO/N=C(\C(=O)N[C@@H]1C(=O)N2C(C(=O)O)=C(COC(C)=O)CS[C@H]12)c1csc(N)n1 [Cefotaxime]
E. coli [1]; Cefotaxime 100 mg/L blood, 50800 cfu/5 mL blood
  Flip time: 0.39 days
E. coli [1]; Cefotaxime 100 mg/L blood, 508000 cfu/5 mL blood
  Flip time: 0.31 days
E. coli [1]; Control (FA plus bottle), Cefotaxime 100 mg/L blood, 50800 cfu/5 mL blood
  Flip time in Days: Neg
E. coli [1]; Control (FA plus bottle), Cefotaxime 100 mg/L blood, 508000 cfu/5 mL blood
  Flip time in Days: Neg
E. coli [2]
  MIC: ≤1 µg/mL

## CO/N=C(\C(=O)N[C@@H]1C(=O)N2C(C(=O)O)=C(CSc3nc(=O)c(=O)[nH]n3C)CS[C@H]12)c1csc(N)n1 [Ceftriaxone]
S. pneumoniae; Ceftriaxone 10 mg/L blood
  Flip time: 0.46 days
  Flip time in Days: Neg
S. pneumoniae; Ceftriaxone 50 mg/L blood
  Flip time: 0.47 days
  Flip time in Days: Neg
S. pneumoniae; Ceftriaxone 94 mg/L blood
  Flip time: 0.52 days
  Flip time in Days: Neg
S. pneumoniae; Ceftriaxone 125 mg/L blood
  Flip time: 0.49 days
  Flip time in Days: Neg
S. pneumoniae; Ceftriaxone 250 mg/L blood
  Flip time: 0.51 days
  Flip time in Days: Neg

## CO/N=C(\C(=O)N[C@@H]1C(=O)N2C(C(=O)O)=C(CSc3nc(=O)c(O)nn3C)CS[C@H]12)c1csc(N)n1 [Celtriaxone]
S. pneumoniae; 200 cfu/5 mL Blood
  Bead Rescue Flip time: 0.86 days
  Control Flip time in Days: Neg
S. pneumoniae; 10000 cfu/5 mL Blood
  Bead Rescue Flip time: 0.71 days
  Control Flip time in Days: Neg
S. pneumoniae; 100000 cfu/5 mL Blood
  Bead Rescue Flip time: 0.68 days
  Control Flip time in Days: Neg

## O=C(O)c1cn(C2CC2)c2cc(N3CCNCC3)c(F)cc2c1=O [Ciprofloxacin]
E. coli [1]; Ciprofloxacin 0.075 mg/L blood, 11400 Cfu/mL (first set, r5-r10), bead rescue with named bead type, antibiotic-labelled line = BC control without beads
  Flip time In Days: Negative
E. coli [1]; Ciprofloxacin 0.075 mg/L blood, 11400 Cfu/mL (second set, r11-r16), bead rescue with named bead type, antibiotic-labelled line = BC control without beads
  Flip time In Days: Negative
E. coli [1]; Ciprofloxacin 0.075 mg/L blood, 380800 Cfu/mL (some rows print 360800), antibiotic-labelled line = BC control without beads
  Difference (Days) compared to BE: Negative
E. coli [1]; Ciprofloxacin 0.075 mg/L blood, 380800 Cfu/mL (some rows print 360800), bead rescue with named bead type, antibiotic-labelled line = BC control without beads
  Flip time in Days: Negative
E. coli [1]; Ciprofloxacin 0.075 mg/l blood, 11400 Cfu/mL (first set, r5-r10), antibiotic-labelled line = BC control without beads
  Difference (Days) compared to BE: Negative
E. coli [1]; Ciprofloxacin 0.075 mg/l blood, 11400 Cfu/mL (second set, r11-r16), antibiotic-labelled line = BC control without beads
  Difference (Days) compared to BE: Negative
E. coli [1]; Example 23, E. coli in blood containing 0.075 mg/L Ciprofloxacin
  No-rescue blood culture control result: negative after 5 days
E. coli [1]; Example 24, E. coli in blood containing 0.075 mg/L Ciprofloxacin
  Blood culture controls (no bead rescue) result: negative
E. coli [1]; 100000 cfu/5 mL Blood
  Bead Rescue Flip time: 0.68 days
  Control Flip time in Days: Neg
E. coli [1]; 1000000 cfu/5 mL Blood
  Bead Rescue Flip time: 0.61 days
  Control Flip time in Days: Neg
